Laboratory results reported in ChEMBL document CHEMBL5584300, “Bioinformatic Approaches Identify Hybrid Antibiotics against Tuberculosis via d-Amino Acid-Activating Adenylation Domains from Cordyceps militaris” (J Nat Prod, 2024).
Converted amounts (≈) assume the structure as drawn. The source made the active and inactive calls. The rule behind the calls is not given here.

How the values were obtained:
Staphylococcus aureus [1] = assay: Antibacterial activity against methicillin-resistant Staphylococcus aureus ATCC 6538 assessed as reduction in microbial growth incubated for 20 hrs by CLSI based broth microdilution method; assay type: functional
Staphylococcus aureus [2] = assay: Antibacterial activity against Staphylococcus aureus ATCC 25923 assessed as reduction in microbial growth incubated for 20 hrs by CLSI based broth microdilution method; assay type: functional
Staphylococcus aureus [3] = assay: Antibacterial activity against methicillin-resistant Staphylococcus aureus ATCC 43300 assessed as reduction in microbial growth incubated for 20 hrs by CLSI based broth microdilution method; assay type: functional
Staphylococcus aureus [4] = assay: Antibacterial activity against Staphylococcus aureus ATCC 6538P assessed as reduction in microbial growth incubated for 20 hrs by CLSI based broth microdilution method; assay type: functional
Bacillus subtilis = assay: Antibacterial activity against Bacillus subtilis ATCC 9372 assessed as reduction in microbial growth incubated for 20 hrs by CLSI based broth microdilution method; assay type: functional
Enterococcus faecalis [5] = assay: Antibacterial activity against Enterococcus faecalis ATCC 29212 assessed as reduction in microbial growth incubated for 20 hrs by CLSI based broth microdilution method; assay type: functional
Enterococcus faecalis [6] = assay: Antibacterial activity against vancomycin-resistant Enterococcus faecalis ATCC 51299 assessed as reduction in microbial growth incubated for 20 hrs by CLSI based broth microdilution method; assay type: functional
Escherichia coli = assay: Antibacterial activity against Escherichia coli ATCC 25922 assessed as reduction in microbial growth incubated for 20 hrs by CLSI based broth microdilution method; assay type: functional
[7] = system: Mycobacterium tuberculosis; assay: Antitubercular activity against Mycobacterium tuberculosis H37Rv ATCC 27294 assessed as reduction in microbial growth incubated for 6 days under aerobic condition by microplate Alamar Blue assay; assay type: functional; settings: H37Rv ATCC 27294, 144 h, time 6 day
[8] = system: Mycobacterium tuberculosis; assay: Antitubercular activity against Mycobacterium tuberculosis H37Rv ATCC 27294 assessed as reduction in microbial growth incubated for 6 days under anaerobic condition by microplate Alamar Blue assay; assay type: functional; settings: H37Rv ATCC 27294, 144 h, time 6 day
[9] = system: Mycolicibacterium smegmatis; assay: Antitubercular activity against Mycobacterium smegmatis mc2 155 assessed as reduction in microbial growth incubated for […] by CLSI based broth microdilution method; assay type: functional
[10] = Cytotoxicity against human DLD-1 cells assessed as reduction in cell viability incubated for 48 hrs by sulforhodamine B assay; assay type: toxicity, cell-based
[11] = Cytotoxicity against human Hep3B cells assessed as reduction in cell viability incubated for 48 hrs by sulforhodamine B assay; assay type: toxicity, cell-based, Hep 3B2
[12] = Cytotoxicity against human HepG2 cells assessed as reduction in cell viability incubated for 48 hrs by sulforhodamine B assay; assay type: toxicity, cell-based
[13] = Cytotoxicity against human HGC-27 cells assessed as reduction in cell viability incubated for 48 hrs by sulforhodamine B assay; assay type: toxicity, cell-based
[14] = system: Mycobacterium tuberculosis; assay: Bactericidal activity against Mycobacterium tuberculosis H37Rv ATCC 27294 assessed as reduction in bacterial count at 16 time MIC by time kill assay; assay type: functional, organism-based; settings: time 2-10 day, TDE = time-dependent effect
[15] = system: Mycobacterium tuberculosis; assay: Bactericidal activity against Mycobacterium tuberculosis H37Rv ATCC 27294 expressing pFCA-luxAB assessed as reduction in bacterial count at 16 times MIC preincubated for 10 days under hypoxic condition followed by aerobic condition for 28 hrs by LORA; assay type: functional, organism-based; settings: time 268.0 hrs
[16] = system: Mycobacterium tuberculosis; assay: Antitubercular activity against Mycobacterium tuberculosis H37Rv ATCC 27294 infected in BALB/c mouse assessed as reduction in bacterial count measured after 4 weeks; assay type: functional, organism-based; settings: dose 160-640 mg/kg
[17] = system: Mycobacterium tuberculosis; assay: Antitubercular activity against Mycobacterium tuberculosis H37Rv ATCC 27294 infected in BALB/c mouse assessed as reduction in bacterial count at 10 to 40 mg/kg measured after 4 weeks; assay type: functional, organism-based; settings: dose 10-40 mg/kg
[18] = system: Mycobacterium tuberculosis; assay: Antitubercular activity against Mycobacterium tuberculosis H37Rv ATCC 27294 infected in BALB/c mouse assessed as reduction in bacterial count at 80 mg/kg measured after 4 weeks relative to control; assay type: functional; design: scale not given: the % may be the effect or the level left
[19] = system: Mycobacterium tuberculosis; assay: Antitubercular activity against Mycobacterium tuberculosis H37Rv ATCC 27294 infected in BALB/c mouse assessed as log reduction in lung at 160 mg/kg measured after 4 weeks; assay type: functional
[20] = system: Mycobacterium tuberculosis; assay: Antitubercular activity against Mycobacterium tuberculosis H37Rv ATCC 27294 infected in BALB/c mouse chronic model assessed as log reduction in lung at 320 mg/kg drug administered twice daily after 28 days post infection and measured after 4 weeks; assay type: functional
[21] = system: Mycobacterium tuberculosis; assay: Antitubercular activity against Mycobacterium tuberculosis H37Rv ATCC 27294 assessed as reduction in microbial growth incubated for 6 days by microplate Alamar Blue assay; assay type: functional; settings: H37Rv ATCC 27294, 144 h, time 6 day
[22] = system: Mycobacterium tuberculosis; assay: Antitubercular activity against Mycobacterium tuberculosis H37Rv ATCC 27294 infected in BALB/c mouse assessed as log reduction in lung at 10 mg/kg measured after 4 weeks; assay type: functional
[23] = system: Mycobacterium tuberculosis; assay: Antitubercular activity against Mycobacterium tuberculosis H37Rv ATCC 27294 infected in BALB/c mouse chronic model assessed as log reduction in lung at 10 mg/kg drug administered after 28 days post infection and measured after 4 weeks; assay type: functional
[24] = system: Mycobacterium tuberculosis; assay: Antitubercular activity against Mycobacterium tuberculosis H37Rv ATCC 27294 infected in BALB/c mouse assessed as reduction in bacterial count in lung at 10 mg/kg measured after 4 weeks; assay type: functional, organism-based

SMILES: CC1=C[C@H]2C[C@@H](C)CC[C@]2(C)[C@@](C)(C(=O)C2=C(O)[C@@H](CO)N(C)C2=O)[C@H]1/C=C/C=C/C=C/C[C@@H](C)O
- MIC (Staphylococcus aureus [1]): 4 µg/mL
- MIC (Staphylococcus aureus [2]): 8 µg/mL
- MIC (Staphylococcus aureus [3]): 4 µg/mL
- MIC (Staphylococcus aureus [4]): 8 µg/mL
- MIC (Bacillus subtilis): 8 µg/mL
- MIC (Enterococcus faecalis [5]): 4 µg/mL
- MIC (Enterococcus faecalis [6]): 8 µg/mL
- MIC (Escherichia coli): > 64 µg/mL
- MIC [7]: 0.016 µg/mL
- MIC [8]: > 64 µg/mL
- MIC [9]: 0.25 µg/mL
- IC50 at 48 h [10]: > 64 µg/mL
- IC50 at 48 h [11]: > 64 µg/mL
- IC50 at 48 h [12]: > 64 µg/mL
- IC50 at 48 h [13]: > 64 µg/mL
- Activity [14]: Tde
- Activity [15]: inactive
- Activity [16]: Dose-Dependent Effect
- Activity [17]: Dose-Dependent Effect
- Activity [18]: 100%
- Activity [19]: 2 log10CFU
- Activity [20]: 2.3 log10CFU

SMILES: CC(=O)O[C@H]1C(=O)[C@@]2(C)[C@H]([C@H](OC(=O)c3ccccc3)[C@]3(O)C[C@H](OC(=O)[C@H](O)[C@@H](NC(=O)c4ccccc4)c4ccccc4)C(C)=C1C3(C)C)[C@]1(OC(C)=O)CO[C@@H]1C[C@@H]2O [PACLITAXEL]
- IC50 at 48 h [10]: 0.031 µg/mL (≈ 0.0363 µM)
- IC50 at 48 h [12]: 0.016 µg/mL (≈ 0.0187 µM)
- IC50 at 48 h [13]: 0.008 µg/mL (≈ 0.00937 µM)

SMILES: C/C=C/C=C/[C@H]1C(C)=C[C@H]2C[C@@H](C)CC[C@@H]2[C@@]1(C)/C(O)=C1/C(=O)[C@@H](CO)N(C)C1=O
- MIC [21]: 16 µg/mL

SMILES: CC1=C[C@H]2C[C@@H](C)CC[C@@H]2[C@@](C)(C(=O)C2=C(O)[C@H](CO)N(C)C2=O)[C@H]1/C=C/C=C/C=C/C[C@@H](C)O
- MIC [7]: 1 µg/mL
- MIC [8]: > 64 µg/mL
- MIC [9]: > 64 µg/mL

SMILES: CC1=C[C@@H]2C[C@@H](C)CC[C@]2(C)[C@@](C)(C(=O)C2=C(O)[C@@H](CO)NC2=O)[C@H]1/C=C/C=C/C=C/C[C@@H](C)O
- MIC [7]: 2 µg/mL
- MIC [8]: > 64 µg/mL
- MIC [9]: > 64 µg/mL

SMILES: CC1(C)S[C@@H]2[C@H](NC(=O)[C@H](N)c3ccccc3)C(=O)N2[C@H]1C(=O)O [AMPICILLIN]
- MIC (Staphylococcus aureus [1]): 2 µg/mL
- MIC (Staphylococcus aureus [2]): 4 µg/mL
- MIC (Staphylococcus aureus [3]): > 64 µg/mL
- MIC (Staphylococcus aureus [4]): > 64 µg/mL
- MIC (Bacillus subtilis): 4 µg/mL
- MIC (Enterococcus faecalis [5]): 2 µg/mL
- MIC (Enterococcus faecalis [6]): 4 µg/mL

SMILES: NNC(=O)c1ccncc1 [ISONIAZID]
- Activity [22]: 2.5 log10CFU
- Activity [23]: 3 log10CFU

SMILES: CC1=C[C@H]2C[C@@H](C)CC[C@]2(C)[C@@](C)(C(=O)C2=C(O)[C@@H](CO)NC2=O)[C@H]1/C=C/C=C/C=C/C[C@@H](C)O
- MIC [7]: 0.5 µg/mL
- MIC [8]: > 64 µg/mL
- MIC [9]: > 64 µg/mL

SMILES: CO[C@H]1/C=C/O[C@@]2(C)Oc3c(C)c(O)c4c(O)c(c(/C=N/N5CCN(C)CC5)c(O)c4c3C2=O)NC(=O)/C(C)=C\C=C\[C@H](C)[C@H](O)[C@@H](C)[C@@H](O)[C@@H](C)[C@H](OC(C)=O)[C@@H]1C [RIFAMPIN]
- MIC [7]: 0.25 µg/mL
- MIC [8]: > 64 µg/mL
- MIC [9]: 16 µg/mL
- MIC [21]: 0.25 µg/mL
- Activity [24]: inactive
- Activity [23]: 3 log10CFU

SMILES: C/C=C/[C@@H]1C=C[C@@H]2C[C@H](C)CC[C@H]2[C@]1(C)/C(O)=C1/C(=O)[C@H](CO)N(C)C1=O
- MIC [21]: > 64 µg/mL
